Data from patent publication US10925876B2, “Methods for using triazolo-pyrazinyl soluble guanylate cyclase activators in fibrotic disorders” (Merck Sharp & Dohme Corp., priority 2016, dated 2021).

Molecular target: T1, sGC α1/β1 heterodimer (Homo sapiens, UniProt Q02108+Q02153)
T1 construct: expressed in transfected cells
T1 sequence (Q02108 1-690): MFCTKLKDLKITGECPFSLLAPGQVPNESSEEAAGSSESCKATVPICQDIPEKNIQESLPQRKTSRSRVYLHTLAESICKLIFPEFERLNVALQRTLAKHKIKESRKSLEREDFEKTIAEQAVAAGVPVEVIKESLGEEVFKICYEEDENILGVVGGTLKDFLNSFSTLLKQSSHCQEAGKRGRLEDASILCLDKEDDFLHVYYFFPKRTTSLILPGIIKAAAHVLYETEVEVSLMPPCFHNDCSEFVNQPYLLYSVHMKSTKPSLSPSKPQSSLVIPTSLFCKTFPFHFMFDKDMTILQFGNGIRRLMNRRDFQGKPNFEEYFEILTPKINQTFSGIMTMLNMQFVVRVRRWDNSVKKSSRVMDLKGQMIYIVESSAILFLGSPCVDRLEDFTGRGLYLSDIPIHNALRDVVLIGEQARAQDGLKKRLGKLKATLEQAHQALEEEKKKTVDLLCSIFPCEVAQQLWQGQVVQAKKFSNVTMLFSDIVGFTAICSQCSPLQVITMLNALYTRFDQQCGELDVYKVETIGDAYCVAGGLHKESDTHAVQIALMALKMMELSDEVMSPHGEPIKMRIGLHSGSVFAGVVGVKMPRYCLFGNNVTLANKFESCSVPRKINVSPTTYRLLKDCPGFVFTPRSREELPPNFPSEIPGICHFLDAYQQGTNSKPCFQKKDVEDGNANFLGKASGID
T1 sequence (Q02153 1-619): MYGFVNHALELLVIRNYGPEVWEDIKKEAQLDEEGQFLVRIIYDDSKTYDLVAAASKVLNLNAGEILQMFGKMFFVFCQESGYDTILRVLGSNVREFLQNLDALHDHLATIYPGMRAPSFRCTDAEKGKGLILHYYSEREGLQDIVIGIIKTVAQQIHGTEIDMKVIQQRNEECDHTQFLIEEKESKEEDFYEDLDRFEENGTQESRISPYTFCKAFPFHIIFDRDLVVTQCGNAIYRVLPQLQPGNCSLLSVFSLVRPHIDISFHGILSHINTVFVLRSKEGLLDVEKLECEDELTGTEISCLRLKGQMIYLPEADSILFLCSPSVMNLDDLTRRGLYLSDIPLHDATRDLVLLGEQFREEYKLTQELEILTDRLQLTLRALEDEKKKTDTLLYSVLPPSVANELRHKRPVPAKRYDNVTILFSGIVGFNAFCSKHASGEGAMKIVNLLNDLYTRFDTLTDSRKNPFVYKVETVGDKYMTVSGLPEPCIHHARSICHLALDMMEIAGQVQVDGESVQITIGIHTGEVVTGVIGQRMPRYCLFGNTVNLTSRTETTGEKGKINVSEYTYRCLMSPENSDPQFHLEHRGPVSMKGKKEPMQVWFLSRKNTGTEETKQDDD
Experiment: Cell-Based sGC Functional Assay (CASA Assay), cGMP generation in CHO-K1/sGC cells;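 note: reference Compound A is a published heme-dependent sGC activator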
Settings: maximum cGMP production of Compound A set to 100% activation, read-out: % Act. (percent activation relative to Compound A)
How it was run: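 Intracellular cGMP quantified by HTRF competition after 1 h, 37 °C compound exposure, with or without 1 μM DETA-NO, in stable CHO-K1/sGC α1/β1 cells (4×10^5/mL; buffer with 0.5 mM IBMX, 5 mM MgCl2, 10 mM HEPES, 0.05% BSA; 2.5% DMSO). Activation normalized to reference Compound A maximum; 4P fit.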

SMILES | Emax [%]
C[C@@]1(c2ccc(F)cc2)C(=O)Nc2nc(-c3cn4ncnc4c(Cc4cccc(O)c4)n3)nc(N)c21 [Example 113B, (S)-4-amino-5-(4-fluorophenyl)-2-(8-(3-hydroxybenzyl)-[1,2,4]triazolo[1,5-a]pyrazin-6-yl)-5-methyl-5H-pyrrolo[2,3-d]pyrimidin-6(7H)-one] | 171
CCCCc1nc(-c2nc(N)c3c(n2)NC(=O)C3(C)c2ccc(Cl)cn2)cn2ncnc12 (stereo not shown) [Example 69A, 4-amino-2-(8-butyl-[1,2,4]triazolo[1,5-a]pyrazin-6-yl)-5-(5-chloropyridin-2-yl)-5-methyl-5H-pyrrolo[2,3-d]pyrimidin-6(7H)-one] | 158
CC(C)Cc1nc(-c2nc(O)c3c(n2)NC(=O)[C@@]3(C)c2ccc(F)cc2)cn2ncnc12 [Example 163A, (S)-5-(4-fluorophenyl)-4-hydroxy-2-(8-isobutyl-[1,2,4]triazolo[1,5-a]pyrazin-6-yl)-5-methyl-5,7-dihydro-6H-pyrrolo[2,3-d]pyrimidin-6-one] | 109
N#Cc1ccc(C2(C3CC3)C(=O)Nc3nc(-c4cn5ncnc5c(CCCC(F)(F)F)n4)nc(N)c32)nc1 (stereo not shown) [Example 117A, 6-(4-Amino-5-cyclopropyl-6-oxo-2-(8-(4,4,4-trifluorobutyl)-[1,2,4]triazolo[1,5-a]pyrazin-6-yl)-6,7-dihydro-5H-pyrrolo[2,3-d]pyrimidin-5-yl)nicotinonitrile] | 140
CC1(c2ccc(F)c(Cl)c2)C(=O)Nc2nc(-c3cn4ncnc4c(CCCC(F)(F)F)n3)nc(N)c21 (stereo not shown) [Example 42B, 4-amino-5-(3-chloro-4-fluorophenyl)-5-methyl-2-(8-(4,4,4-trifluorobutyl)-[1,2,4]triazolo[1,5-a]pyrazin-6-yl)-5H-pyrrolo[2,3-d]pyrimidin-6(7H)-one] | 82
CC1(c2ccccc2F)C(=O)Nc2nc(-c3cn4ncnc4c(CCC(F)(F)C(F)(F)F)n3)nc(O)c21 (stereo not shown) [Example 170A, 5-(2-Fluorophenyl)-4-hydroxy-5-methyl-2-(8-(3,3,4,4,4-pentafluorobutyl)-[1,2,4]triazolo[1,5-a]pyrazin-6-yl)-5,7-dihydro-6H-pyrrolo[2,3-d]pyrimidin-6-one] | 125
CC1(c2ccc(C#N)cn2)C(=O)Nc2nc(-c3cn4ncnc4c(CCC(F)(F)C(F)(F)F)n3)nc(O)c21 (stereo not shown) [Example 131A, 6-(4-hydroxy-5-methyl-6-oxo-2-(8-(3,3,4,4,4-pentafluorobutyl)-[1,2,4]triazolo[1,5-a]pyrazin-6-yl)-6,7-dihydro-5H-pyrrolo[2,3-d]pyrimidin-5-yl)nicotinonitrile] | 99
CCCCc1nc(-c2nc(O)c3c(n2)NC(=O)C3(C)c2ccc(Cl)cc2)cn2ncnc12 (stereo not shown) [Example 157A, 2-(8-butyl-[1,2,4]triazolo[1,5-a]pyrazin-6-yl)-5-(4-chlorophenyl)-4-hydroxy-5-methyl-5H-pyrrolo[2,3-d]pyrimidin-6(7H)-one] | 161
CC1(c2ncc(C(F)(F)F)cn2)C(=O)Nc2nc(-c3cn4ncnc4c(CCCC(F)(F)F)n3)nc(N)c21 (racemic) [Example 51B, 4-amino-5-methyl-2-(8-(4,4,4-trifluorobutyl)-[1,2,4]triazolo[1,5-a]pyrazin-6-yl)-5-(5-(trifluoromethyl)pyrimidin-2-yl)-5H-pyrrolo[2,3-d]pyrimidin-6(7H)-one] | 144
CC1(c2ccc(F)c(Cl)c2)C(=O)Nc2nc(-c3cn4ncnc4c(CCCC(F)(F)F)n3)nc(O)c21 (stereo not shown) [Example 147B, 5-(3-chloro-4-fluorophenyl)-4-hydroxy-5-methyl-2-(8-(4,4,4-trifluorobutyl)-[1,2,4]triazolo[1,5-a]pyrazin-6-yl)-5,7-dihydro-6H-pyrrolo[2,3-d]pyrimidin-6-one] | 94
CC1(c2ccccn2)C(=O)Nc2nc(-c3cn4ncnc4c(CCC(F)(F)C(F)(F)F)n3)nc(O)c21 (stereo not shown) [Example 127B, 4-hydroxy-5-methyl-2-(8-(3,3,4,4,4-pentafluorobutyl)-[1,2,4]triazolo[1,5-a]pyrazin-6-yl)-5-(pyridin-2-yl)-5H-pyrrolo[2,3-d]pyrimidin-6(7H)-one] | 129
CCCc1nc(-c2nc(N)c3c(n2)NC(=O)C3(C)c2ccc(F)cn2)cn2nc(C)nc12 (stereo not shown) [Example 92B, 4-amino-5-(5-fluoropyridin-2-yl)-5-methyl-2-(2-methyl-8-propyl-[1,2,4]triazolo[1,5-a]pyrazin-6-yl)-5H-pyrrolo[2,3-d]pyrimidin-6(7H)-one] | 167
CCCc1nc(-c2nc(N)c3c(n2)NC(=O)C3(C)c2ccc(F)cn2)cn2ncnc12 (stereo not shown) [Example 54B, 4-amino-5-(5-fluoropyridin-2-yl)-5-methyl-2-(8-propyl-[1,2,4]triazolo[1,5-a]pyrazin-6-yl)-5H-pyrrolo[2,3-d]pyrimidin-6(7H)-one] | 210
Nc1nc(-c2cn3ncnc3c(CCCC(F)(F)F)n2)nc2c1C(c1ccc(C(F)(F)F)cc1)(C1CC1)C(=O)N2 (stereo not shown) [Example 35A, 4-amino-5-cyclopropyl-2-(8-(4,4,4-trifluorobutyl)-[1,2,4]triazolo[1,5-a]pyrazin-6-yl)-5-(4-(trifluoromethyl)phenyl)-5H-pyrrolo[2,3-d]pyrimidin-6(7H)-one] | 164
C[C@@]1(c2ccc(F)cc2)C(=O)Nc2nc(-c3cn4ncnc4c(CCC(F)(F)C(F)(F)F)n3)ncc21 [Example 172A, (S)-5-(4-fluorophenyl)-5-methyl-2-(8-(3,3,4,4,4-pentafluorobutyl)-[1,2,4]triazolo[1,5-a]pyrazin-6-yl)-5,7-dihydro-6H-pyrrolo[2,3-d]pyrimidin-6-one] | 122
Nc1nc(-c2cn3ncnc3c(CCCC(F)(F)F)n2)nc2c1C(c1ccc(Cl)cn1)(C1CC1)C(=O)N2 (stereo not shown) [Example 27A, 4-amino-5-(5-chloropyridin-2-yl)-5-cyclopropyl-2-(8-(4,4,4-trifluorobutyl)-[1,2,4]triazolo[1,5-a]pyrazin-6-yl)-5H-pyrrolo[2,3-d]pyrimidin-6(7H)-one] | 178
CCCCc1nc(-c2nc(N)c3c(n2)NC(=O)C3(c2ccc(F)cn2)C2CC2)cn2ncnc12 (stereo not shown) [Example 66A, 4-amino-2-(8-butyl-[1,2,4]triazolo[1,5-a]pyrazin-6-yl)-5-cyclopropyl-5-(5-fluoropyridin-2-yl)-5H-pyrrolo[2,3-d]pyrimidin-6(7H)-one] | 162
CCCCc1nc(-c2nc(N)c3c(n2)NC(=O)C3(C)c2ccc(F)c(F)c2)cn2ncnc12 (stereo not shown) [Example 64B, 4-amino-2-(8-butyl-[1,2,4]triazolo[1,5-a]pyrazin-6-yl)-5-(3,4-difluorophenyl)-5-methyl-5H-pyrrolo[2,3-d]pyrimidin-6(7H)-one] | 90
CCCc1nc(-c2nc(N)c3c(n2)NC(=O)C3(C)c2ccc(Cl)cc2)cn2nc(C)nc12 (stereo not shown) [Example 93A, 4-amino-5-(4-chlorophenyl)-5-methyl-2-(2-methyl-8-propyl-[1,2,4]triazolo[1,5-a]pyrazin-6-yl)-5H-pyrrolo[2,3-d]pyrimidin-6(7H)-one] | 159
COc1ccc(C2(C)C(=O)Nc3nc(-c4cn5ncnc5c(CCCC(F)(F)F)n4)nc(O)c32)nc1 (stereo not shown) [Example 148A, 4-hydroxy-5-(5-methoxypyridin-2-yl)-5-methyl-2-(8-(4,4,4-trifluorobutyl)-[1,2,4]triazolo[1,5-a]pyrazin-6-yl)-5H-pyrrolo[2,3-d]pyrimidin-6(7H)-one] | 96
COc1ccc(C2(C)C(=O)Nc3nc(-c4cn5ncnc5c(CCCC(F)(F)F)n4)nc(N)c32)nc1 (stereo not shown) [Example 40A, 4-amino-5-(5-methoxypyridin-2-yl)-5-methyl-2-(8-(4,4,4-trifluorobutyl)-[1,2,4]triazolo[1,5-a]pyrazin-6-yl)-5H-pyrrolo[2,3-d]pyrimidin-6(7H)-one] | 130
CC1(c2ccc(C(F)F)cn2)C(=O)Nc2nc(-c3cn4ncnc4c(CCCC(F)(F)F)n3)nc(N)c21 (stereo not shown) [Example 43B, 4-amino-5-(5-(difluoromethyl)pyridin-2-yl)-5-methyl-2-(8-(4,4,4-trifluorobutyl)-[1,2,4]triazolo[1,5-a]pyrazin-6-yl)-5H-pyrrolo[2,3-d]pyrimidin-6(7H)-one] | 69
